In patent publication US20130210061A1, “Method of Screening Damp-Dry Malodor Inhibitor and Method of Evaluating Damp-Dry Malodor Inhibitor” (KAO CORPORATION, priority 2010, published 2013):
Read-outs that look alike come from different tables or passages of the source.

Legend:
Assay in all cases: Example 1: quantification of 4M3H on cotton fabric with 14-methylhexadecanoic acid
M. osloensis NCIMB10693 = type: cell-based, Moraxella osloensis
Description: (§1) 10 mL of methanol was added to the towel that had been left to stand still for 24 hours, and 1 mL of the methanol was mixed with 1 mL of ADAM (9-anthrydiazomethanene, manufactured by Funakoshi Corp., 0.1 w/v %). The mixture was left to stand for 60 minutes at room temperature, and thus derivatization was carried out.
(§2) Thereafter, 10 μL of the solution was analyzed by using LC-FL (liquid chromatography apparatus: HITACHI ELITE LaChrom (trade name, manufactured by Hitachi, Ltd.), column: Lichrosphere 100 RP-8(e) (trade name, manufactured by Agilent Technologies, Inc., 5 μm×125 mm×4 mmφ), column temperature: 40° C., eluent a mixed solution of acetonitrile/water=7/3 (volume ratio), flow rate: 1.0 mL/min, detector: excitation wavelength (365 nm), measurement wavelength (412 nm)), and thereby quantification of 4M3H thus produced was carried out. In regard to the amount of production of 4M3H, a sample which produced 4M3H in an amount of more than 1 μg was rated as “[…]”; a sample which produced 4M3H in an amount of more than 0.1 μg and 1 μg or less was rated as “∘”; a sample which produced 4M3H in an amount of more than 0 μg and 0.1 μg or less was rated as “Δ”; and a sample in which no 4M3H was detected was rated as “x”.
(§3) One platinum loop of each of Moraxella osloensis NCIMB10693, Moraxella sp. 4-1, Psychrobacter pacificensis NBRC103191, Psychrobacter glacincola NCIMB101053, Pseudomonas alcaligenes No. 41, Acinetobacter calcoaceticus HH2BD-49, Saccaromyces cerevisiae NBRC1661, Rhodotorula mucilaginosa NBRC0909 and Rhodotorula slooffiae 13c was inoculated into 5 mL of a SCD liquid medium (manufactured by Nihon Pharmaceutical Co., Ltd.), and the microbial cells were subjected to shaking culture (160 rpm) at 35° C. for 24 hours. The microbial cells obtained after culture were centrifuged (8000×g, 10 minutes), the supernatant was removed, and then the microbial cells were suspended in 5 mL of physiological saline. The suspension was centrifuged again (8000×g, 10 minutes), subsequently the supernatant was removed, and a microbial suspension was prepared by using physiological saline such that the OD600 would be 0.1.
(§4) Furthermore, 0.1 mL each of 10-ppm or 100-ppm aqueous solutions of the compounds shown in the following Table 6 was applied on the fabric described above. As a control, a fabric on which sterilized water was applied instead of the compounds described below was also prepared.
(§5) On a plain-woven cotton fabric prepared as described above, 0.1 mL each of the various microbial suspensions was inoculated, and the samples were left to stand still under humidified conditions at 37° C. for 24 hours and were subjected to an evaluation such as described below.
(§6) Quantification of 4M3H was carried out by the same method as that used in Test Example 3, and by taking as a reference the 4M3H production amount of a sample on which sterilized water was applied as a test substance, the 4M3H production amounts in the case of applying other test substances were evaluated on the basis of the following criteria. • A: (4M3H production amount in the case of applying a test substance)<( 1/100 of the 4M3H production amount in the case of applying sterilized water) • B: ( 1/100 of the 4M3H production amount in the case of applying sterilized water)≦(4M3H production amount in the case of applying a test substance)<( 1/10 of the 4M3H production amount in the case of applying sterilized water) • C: ( 1/10 of the 4M3H production amount in the case of applying sterilized water)≦(4M3H production amount in the case of applying a test substance)<(4M3H production amount in the case of applying sterilized water) • D: (4M3H production amount in the case of applying sterilized water)≦(4M3H production amount in the case of applying a test substance)

Moraxella sp. 4-1 = type: cell-based; conditions: 37° C., 24 hours, vs sterilized water
Description: as §1, §2, §3, §4, §5, §6

[1] = test system: P. pacificensis NBRC103191; type: cell-based, Psychrobacter pacificensis; conditions: 37° C., 24 hours, vs sterilized water
Description: as §1, §2, §3, §4, §5, §6

P. glacincola NBRC101053 = type: cell-based, Psychrobacter glacincola; conditions: 37° C., 24 hours, vs sterilized water
Description: as §1, §2, §3, §4, §5, §6

P. alcaligenes No. 41 = type: cell-based, Pseudomonas alcaligenes; conditions: 37° C., 24 hours, vs sterilized water
Description: as §1, §2, §3, §4, §5, §6

[2] = test system: A. calcoaceticus HH2BD-49; type: cell-based, Acinetobacter calcoaceticus; conditions: 37° C., 24 hours, vs sterilized water
Description: as §1, §2, §3, §4, §5, §6

S. cerevisiae NBRC1661 = type: cell-based, Saccaromyces cerevisiae; conditions: 37° C., 24 hours, vs sterilized water
Description: as §1, §2, §3, §4, §5, §6

R. muculaginosa NBRC0909 = type: cell-based, Rhodotorula mucilaginosa; conditions: 37° C., 24 hours, vs sterilized water
Description: as §1, §2, §3, §4, §5, §6

R. slooffiae 13c = type: cell-based, Rhodotorula slooffiae; conditions: 37° C., 24 hours, vs sterilized water
Description: as §1, §2, §3, §4, §5, §6

[3] = 10 ppm test substance, M. osloensis NCIMB10693, cotton fabric with 14-methylhexadecanoic acid, 37° C., 24 hours, vs sterilized water
[4] = 100 ppm test substance, M. osloensis NCIMB10693, cotton fabric with 14-methylhexadecanoic acid, 37° C., 24 hours, vs sterilized water
[5] = Faucicola osloensis, NCIMB10693, 24 h, read-out: Production amount of 4M3H
[6] = Faucicola osloensis, 100 ppm test substance, M. osloensis NCIMB10693, cotton fabric with 14-methylhexadecanoic acid, 37° C., 24 hours, vs sterilized water, read-out: Production amount of 4M3H

`CN(C)c1ccc(/C([S-])=C(/[S-])c2ccccc2)cc1.CN(C)c1ccc(/C([S-])=C(/[S-])c2ccccc2)cc1.[Ni]` [Bis(4-dimethylaminodithiobenzil)nickel] was tested, and the “Production amount of 4M3H” value (M. osloensis NCIMB10693; [3]) was “C (( 1/10 of the 4M3H production amount in the case of applying sterilized water)≦(4M3H production amount in the case of applying a test substance)<(4M3H production amount in the case of applying sterilized water))”, the “Production amount of 4M3H” value (M. osloensis NCIMB10693; [4]) was “A ((4M3H production amount in the case of applying a test substance)<( 1/100 of the 4M3H production amount in the case of applying sterilized water))” and the “Production amount of 4M3H” value (Moraxella sp. 4-1; 10 ppm test substance) was “B (( 1/100 of the 4M3H production amount in the case of applying sterilized water)≦(4M3H production amount in the case of applying a test substance)<( 1/10 of the 4M3H production amount in the case of applying sterilized water))”. The “Production amount of 4M3H” value (Moraxella sp. 4-1; 100 ppm test substance) was “A ((4M3H production amount in the case of applying a test substance)<( 1/100 of the 4M3H production amount in the case of applying sterilized water))”, the “Production amount of 4M3H” value ([1]; 10 ppm test substance) was “C (( 1/10 of the 4M3H production amount in the case of applying sterilized water)≦(4M3H production amount in the case of applying a test substance)<(4M3H production amount in the case of applying sterilized water))” and the “Production amount of 4M3H” value ([1]; 100 ppm test substance) was “B (( 1/100 of the 4M3H production amount in the case of applying sterilized water)≦(4M3H production amount in the case of applying a test substance)<( 1/10 of the 4M3H production amount in the case of applying sterilized water))”. The “Production amount of 4M3H” value (P. glacincola NBRC101053; 10 ppm test substance) was “A ((4M3H production amount in the case of applying a test substance)<( 1/100 of the 4M3H production amount in the case of applying sterilized water))”, the “Production amount of 4M3H” value (P. glacincola NBRC101053; 100 ppm test substance) was “A ((4M3H production amount in the case of applying a test substance)<( 1/100 of the 4M3H production amount in the case of applying sterilized water))” and the “Production amount of 4M3H” value (P. alcaligenes No. 41; 10 ppm test substance) was “C (( 1/10 of the 4M3H production amount in the case of applying sterilized water)≦(4M3H production amount in the case of applying a test substance)<(4M3H production amount in the case of applying sterilized water))”. The “Production amount of 4M3H” value (P. alcaligenes No. 41; 100 ppm test substance) was “A ((4M3H production amount in the case of applying a test substance)<( 1/100 of the 4M3H production amount in the case of applying sterilized water))”, the “Production amount of 4M3H” value ([2]; 10 ppm test substance) was “B (( 1/100 of the 4M3H production amount in the case of applying sterilized water)≦(4M3H production amount in the case of applying a test substance)<( 1/10 of the 4M3H production amount in the case of applying sterilized water))” and the “Production amount of 4M3H” value ([2]; 100 ppm test substance) was “A ((4M3H production amount in the case of applying a test substance)<( 1/100 of the 4M3H production amount in the case of applying sterilized water))”. For the same compound, the “Production amount of 4M3H” value (S. cerevisiae NBRC1661; 10 ppm test substance) was “C (( 1/10 of the 4M3H production amount in the case of applying sterilized water)≦(4M3H production amount in the case of applying a test substance)<(4M3H production amount in the case of applying sterilized water))”, the “Production amount of 4M3H” value (S. cerevisiae NBRC1661; 100 ppm test substance) was “A ((4M3H production amount in the case of applying a test substance)<( 1/100 of the 4M3H production amount in the case of applying sterilized water))” and the “Production amount of 4M3H” value (R. muculaginosa NBRC0909; 10 ppm test substance) was “B (( 1/100 of the 4M3H production amount in the case of applying sterilized water)≦(4M3H production amount in the case of applying a test substance)<( 1/10 of the 4M3H production amount in the case of applying sterilized water))”. For the same compound, the “Production amount of 4M3H” value (R. muculaginosa NBRC0909; 100 ppm test substance) was “A ((4M3H production amount in the case of applying a test substance)<( 1/100 of the 4M3H production amount in the case of applying sterilized water))”, the “Production amount of 4M3H” value (R. slooffiae 13c; 10 ppm test substance) was “C (( 1/10 of the 4M3H production amount in the case of applying sterilized water)≦(4M3H production amount in the case of applying a test substance)<(4M3H production amount in the case of applying sterilized water))” and the “Production amount of 4M3H” value (R. slooffiae 13c; 100 ppm test substance) was “A ((4M3H production amount in the case of applying a test substance)<( 1/100 of the 4M3H production amount in the case of applying sterilized water))”.
In the case of `O=C/C=C/c1ccccc1` [Cinnamic aldehyde], the activity at 10 ppm (M. osloensis NCIMB10693; [5]) is reported as 10 to 100% and the activity at 100 ppm (M. osloensis NCIMB10693; [5]) is reported as < 1%.
Compound `CCCCCCCCCCCC[N+](C)(C)C` [Dodecyl trimethyl ammonium chloride] has an activity at 100 ppm (M. osloensis NCIMB10693; [5]) of 10 to 100%.
For `CCCCCCCCCCCCCCCC[N+](C)(C)C` [Hexadecyl trimethyl ammonium chloride], the activity at 100 ppm (M. osloensis NCIMB10693; [5]) was > 100%.
For `CCCCC/C=C\C/C=C\CCCCCCCC(=O)O` [Linoleic acid], the activity at 100 ppm (M. osloensis NCIMB10693; [6]) was 1 to 10%.
For `CC/C=C\C/C=C\C/C=C\CCCCCCCC(=O)O` [Linolenic acid], the activity at 100 ppm (M. osloensis NCIMB10693; [6]) was 1 to 10%.
With `CCCCCCCCCCCCCCCC(=O)O` [Palmitic acid] the activity at 100 ppm (M. osloensis NCIMB10693; [6]) was 10 to 100%.
Work on `CCCCCCCCCCCCCCCCCC(=O)O` [Stearic acid] yielded an activity at 100 ppm (M. osloensis NCIMB10693; [6]) of 10 to 100%.
Compound `CCCCCCCCCCCCCC[N+](C)(C)C` [Tetradecyl trimethyl ammonium chloride] has an activity at 100 ppm (M. osloensis NCIMB10693; [6]) of 10 to 100%.
In the case of Polylysine, the “Production amount of 4M3H” value (M. osloensis NCIMB10693; [3]) is reported as “D ((4M3H production amount in the case of applying sterilized water)≦(4M3H production amount in the case of applying a test substance))” and the “Production amount of 4M3H” value (M. osloensis NCIMB10693; [4]) is reported as “C (( 1/10 of the 4M3H production amount in the case of applying sterilized water)≦(4M3H production amount in the case of applying a test substance)<(4M3H production amount in the case of applying sterilized water))”.
For Polyoxyethylene (10) lauryl ether, the “Production amount of 4M3H” value (M. osloensis NCIMB10693; [4]) was “D ((4M3H production amount in the case of applying sterilized water)≦(4M3H production amount in the case of applying a test substance))”.
In the case of “Sodium alkylbenzene sulfonate [Sodium akylbenzene sulfonate]”, the “Production amount of 4M3H” value (M. osloensis NCIMB10693; [4]) is reported as “C (( 1/10 of the 4M3H production amount in the case of applying sterilized water)≦(4M3H production amount in the case of applying a test substance)<(4M3H production amount in the case of applying sterilized water))”.
